Experimental data as given in patent US9732075B2, “Benzimidazole-proline derivatives” (IDORSIA PHARMACEUTICALS LTD, priority 2012, dated 2017).

Assays:
human orexin-1 receptor = human orexin-1 receptor (Homo sapiens (Human), UniProt O43613); assay: In vitro assay: intracellular calcium measurements (FLIPR), antagonistic activity; type: cell-based; details: CHO cells expressing human orexin-1 receptor, orexin-A agonist, geometric mean, read-out: IC50 Ox1
Procedure: (§1) In Vitro Assay: Intracellular Calcium Measurements:
(§2) Chinese hamster ovary (CHO) cells expressing the human orexin-1 receptor and the human orexin-2 receptor, respectively, are grown in culture medium (Ham F-12 with L-Glutamine) containing 300 μg/ml G418, 100 U/ml penicillin, 100 μg/ml streptomycin and 10% heat inactivated fetal calf serum (FCS). The cells are seeded at 20,000 cells/well into 384-well black clear bottom sterile plates (Greiner). The seeded plates are incubated overnight at 37° C. in 5% CO2.
(§3) Human orexin-A as an agonist is prepared as 1 mM stock solution in MeOH: water (1:1), diluted in HBSS containing 0.1% bovine serum albumin (BSA), NaHCO3: 0.375 g/l and 20 mM HEPES for use in the assay at a final concentration of 3 nM.
(§4) Antagonists are prepared as 10 mM stock solution in DMSO, then diluted in 384-well plates using DMSO followed by a transfer of the dilutions into in HBSS containing 0.1% bovine serum albumin (BSA), NaHCO3: 0.375 g/l and 20 mM HEPES. On the day of the assay, 50 μl of staining buffer (HBSS containing 1% FCS, 20 mM HEPES, NaHCO3: 0.375 g/l, 5 mM probenecid (Sigma) and […] of the fluorescent calcium indicator fluo-4 AM (1 mM stock solution in DMSO, containing 10% pluronic) is added to each well. The 384-well cell-plates are incubated for 50 min at 37° C. in 5% CO2 followed by equilibration at RT for 30 min before measurement.
(§5) Within the Fluorescent Imaging Plate Reader (FLIPR Tetra, Molecular Devices), antagonists are added to the plate in a volume of 10 μl/well, incubated for 120 min and finally 10 μl/well of agonist is added. Fluorescence is measured for each well at 1 second intervals, and the height of each fluorescence peak is compared to the height of the fluorescence peak induced by an approximate EC70 (for example 5 nM) of orexin-A with vehicle in place of antagonist. The IC50 value (the concentration of compound needed to inhibit 50% of the agonistic response) is determined and may be normalized using the obtained IC50 value of a on-plate reference compound. Optimized conditions are achieved by adjustment of pipetting speed and cell splitting regime. The calculated IC50 values may fluctuate depending on the daily cellular assay performance. Fluctuations of this kind are known to those skilled in the art. Average IC50 values from several measurements are given as geometric mean values.

human orexin-2 receptor = human orexin-2 receptor (Homo sapiens (Human), UniProt O43614); assay: as above; type: cell-based; details: CHO cells expressing human orexin-2 receptor, orexin-A agonist, geometric mean, read-out: IC50 Ox2
Chain of human orexin-2 receptor (O43614 whole entry): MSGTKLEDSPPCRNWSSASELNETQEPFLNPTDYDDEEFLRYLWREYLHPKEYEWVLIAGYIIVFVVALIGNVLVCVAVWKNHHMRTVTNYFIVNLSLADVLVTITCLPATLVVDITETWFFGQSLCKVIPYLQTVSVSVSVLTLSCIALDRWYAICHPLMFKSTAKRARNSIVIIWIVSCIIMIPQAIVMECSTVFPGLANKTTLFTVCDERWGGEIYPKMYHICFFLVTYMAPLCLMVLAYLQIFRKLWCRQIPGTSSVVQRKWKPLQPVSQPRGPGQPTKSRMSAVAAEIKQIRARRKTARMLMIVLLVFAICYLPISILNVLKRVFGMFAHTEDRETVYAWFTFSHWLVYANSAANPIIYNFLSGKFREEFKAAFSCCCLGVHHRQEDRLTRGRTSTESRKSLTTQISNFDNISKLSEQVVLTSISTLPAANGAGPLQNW
Procedure: as §1, §2, §3, §4, §5

Chain of human orexin-1 receptor (O43613 whole entry): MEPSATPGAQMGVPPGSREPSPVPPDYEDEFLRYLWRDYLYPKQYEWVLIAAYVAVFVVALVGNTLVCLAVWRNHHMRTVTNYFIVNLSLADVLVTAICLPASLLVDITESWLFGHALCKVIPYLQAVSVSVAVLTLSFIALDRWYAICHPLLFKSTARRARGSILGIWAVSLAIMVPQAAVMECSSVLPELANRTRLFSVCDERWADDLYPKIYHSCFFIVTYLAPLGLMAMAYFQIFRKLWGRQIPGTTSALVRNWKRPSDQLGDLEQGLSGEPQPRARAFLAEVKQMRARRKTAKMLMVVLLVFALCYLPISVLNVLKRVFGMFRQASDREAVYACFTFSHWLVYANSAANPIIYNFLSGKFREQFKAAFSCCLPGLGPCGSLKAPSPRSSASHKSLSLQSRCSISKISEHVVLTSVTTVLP

SMILES | IC50 (human orexin-1 receptor) [nM] | IC50 (human orexin-2 receptor) [nM]
COc1ccc2nc([C@@H]3CCCN3C(=O)c3nc(C4CC4)sc3-c3ccc(C)cc3)[nH]c2c1 [Ex. 1.23] | 523 | 212
CCc1ccc(-c2sc(C)nc2C(=O)N2CCC[C@H]2c2nc3ccc(OC)cc3[nH]2)cc1 [Ex. 1.24] | 850 | 81
COc1ccc2nc([C@@H]3CCCN3C(=O)c3nc(C)sc3-c3cccc(Cl)c3)[nH]c2c1 [Ex. 1.25] | 364 | 90
COc1ccc2nc([C@@H]3CCCN3C(=O)c3ccccc3-n3nccn3)[nH]c2c1 [Ex. 1.27] | 1040 | 35
COc1ccc2nc([C@@H]3CCCN3C(=O)c3cnc(C)nc3-c3cccc(Cl)c3)[nH]c2c1 [Ex. 1.29] | 369 | 182
COc1ccc2nc([C@@H]3CCCN3C(=O)c3cnc(C)nc3-c3ccccc3)[nH]c2c1 [Ex. 1.32] | 347 | 139
COc1ccc2nc([C@@H]3CCCN3C(=O)c3cnc(C)nc3-c3ccc(Br)c(Cl)c3)[nH]c2c1 [Ex. 1.33] | 76 | 48
CSc1ccc2nc([C@@H]3CCCN3C(=O)c3nc(C4CC4)sc3-c3ccccc3)[nH]c2c1 [Ex. 1.35] | 117 | 99
CSc1ccc2nc([C@@H]3CCCN3C(=O)c3nc(C)sc3-c3cccc(Cl)c3Cl)[nH]c2c1 [Ex. 1.36] | 109 | 27
CCc1ccc(-c2sc(C)nc2C(=O)N2CCC[C@H]2c2nc3ccc(SC)cc3[nH]2)cc1 [Ex. 1.42] | 263 | 65
CSc1ccc2nc([C@@H]3CCCN3C(=O)c3nc(C)sc3-c3cccc(Cl)c3)[nH]c2c1 [Ex. 1.43] | 97 | 58
CSc1ccc2nc([C@@H]3CCCN3C(=O)c3nc(C)sc3-c3cc(F)cc(F)c3)[nH]c2c1 [Ex. 1.44] | 404 | 120
CSc1ccc2nc([C@@H]3CCCN3C(=O)c3nccnc3-c3cc(C)cc(F)c3)[nH]c2c1 [Ex. 1.45] | 501 | 109
CSc1ccc2nc([C@@H]3CCCN3C(=O)c3ccccc3-c3ccc(C)c(C)c3)[nH]c2c1 [Ex. 1.46] | 128 | 13
CSc1ccc2nc([C@@H]3CCCN3C(=O)c3cnc(C)nc3-c3ccc(F)cc3)[nH]c2c1 [Ex. 1.50] | 394 | 107
CSc1ccc2nc([C@@H]3CCCN3C(=O)c3cncnc3-c3ccc(Br)c(Cl)c3)[nH]c2c1 [Ex. 1.54] | 726 | 80
CSc1ccc2nc([C@@H]3CCCN3C(=O)c3cnc(C)nc3-c3ccc(C)c(C)c3)[nH]c2c1 [Ex. 1.55] | 35 | 10
CSc1ccc2nc([C@@H]3CCCN3C(=O)c3cnc(C)nc3-c3ccccc3)[nH]c2c1 [Ex. 1.57] | 76 | 22
CSc1cccc2nc([C@@H]3CCCN3C(=O)c3nc(C)sc3-c3ccc(Br)cc3)[nH]c12 [Ex. 1.60] | 61 | 48
CSc1cccc2nc([C@@H]3CCCN3C(=O)c3nc(C4CC4)sc3-c3ccccc3)[nH]c12 [Ex. 1.61] | 21 | 21
COc1cccc(-c2sc(C)nc2C(=O)N2CCC[C@H]2c2nc3cccc(SC)c3[nH]2)c1 [Ex. 1.63] | 12 | 9
CSc1cccc2nc([C@@H]3CCCN3C(=O)c3nc(C)sc3-c3cccc(C(F)(F)F)c3)[nH]c12 [Ex. 1.64] | 12 | 18
CSc1cccc2nc([C@@H]3CCCN3C(=O)c3nc(C)sc3-c3cccc(F)c3)[nH]c12 [Ex. 1.65] | 63 | 147
CSc1cccc2nc([C@@H]3CCCN3C(=O)c3nc(C4CC4)sc3-c3ccc(C)cc3)[nH]c12 [Ex. 1.68] | 7 | 8
CCc1ccc(-c2sc(C)nc2C(=O)N2CCC[C@H]2c2nc3cccc(SC)c3[nH]2)cc1 [Ex. 1.69] | 37 | 31

Results, then the molecule that gave them:

IC50 (human orexin-1 receptor) [nM] | IC50 (human orexin-2 receptor) [nM] | SMILES
415 | 52 | COc1ccc2nc([C@@H]3CCCN3C(=O)c3nc(C)sc3-c3ccc(C)cc3)[nH]c2c1 [Ex. 1.22]
125 | 22 | COc1ccc2nc([C@@H]3CCCN3C(=O)c3ccccc3-c3ccc(C)c(C)c3)[nH]c2c1 [Ex. 1.26]
114 | 110 | COc1ccc2nc([C@@H]3CCCN3C(=O)c3cnc(C)nc3-c3ccc(Cl)c(Cl)c3)[nH]c2c1 [Ex. 1.28]
624 | 147 | COc1ccc2nc([C@@H]3CCCN3C(=O)c3cncnc3-c3ccc(Br)c(Cl)c3)[nH]c2c1 [Ex. 1.30]
195 | 78 | COc1ccc2nc([C@@H]3CCCN3C(=O)c3cnc(C)nc3-c3ccc(C)c(C)c3)[nH]c2c1 [Ex. 1.31]
124 | 56 | CSc1ccc2nc([C@@H]3CCCN3C(=O)c3nc(C)sc3-c3ccc(Br)cc3)[nH]c2c1 [Ex. 1.34]
154 | 62 | COc1cccc(-c2sc(C)nc2C(=O)N2CCC[C@H]2c2nc3ccc(SC)cc3[nH]2)c1 [Ex. 1.37]
360 | 110 | CSc1ccc2nc([C@@H]3CCCN3C(=O)c3nc(C)sc3-c3cccc(C(F)(F)F)c3)[nH]c2c1 [Ex. 1.38]
157 | 73 | CSc1ccc2nc([C@@H]3CCCN3C(=O)c3nc(C)sc3-c3cccc(F)c3)[nH]c2c1 [Ex. 1.39]
74 | 23 | CSc1ccc2nc([C@@H]3CCCN3C(=O)c3nc(C)sc3-c3ccc(C)cc3)[nH]c2c1 [Ex. 1.40]
115 | 64 | CSc1ccc2nc([C@@H]3CCCN3C(=O)c3nc(C4CC4)sc3-c3ccc(C)cc3)[nH]c2c1 [Ex. 1.41]
446 | 13 | CSc1ccc2nc([C@@H]3CCCN3C(=O)c3ccccc3-n3nccn3)[nH]c2c1 [Ex. 1.47]
32 | 42 | CSc1ccc2nc([C@@H]3CCCN3C(=O)c3cnc(C)nc3-c3ccc(Cl)c(Cl)c3)[nH]c2c1 [Ex. 1.49]
66 | 21 | CSc1ccc2nc([C@@H]3CCCN3C(=O)c3cnc(C)nc3-c3cccc(Cl)c3)[nH]c2c1 [Ex. 1.51]
737 | 121 | CSc1ccc2nc([C@@H]3CCCN3C(=O)c3cncnc3-c3ccc(Cl)c(Cl)c3)[nH]c2c1 [Ex. 1.52]
616 | 90 | CSc1ccc2nc([C@@H]3CCCN3C(=O)c3cncnc3-c3ccc(C)c(C)c3)[nH]c2c1 [Ex. 1.53]
252 | 88 | COc1cccc(-c2nc(C)ncc2C(=O)N2CCC[C@H]2c2nc3ccc(SC)cc3[nH]2)c1 [Ex. 1.56]
32 | 24 | CSc1ccc2nc([C@@H]3CCCN3C(=O)c3cnc(C)nc3-c3ccc(Br)c(Cl)c3)[nH]c2c1 [Ex. 1.58]
77 | 252 | CSc1ccc2nc([C@@H]3CCCN3C(=O)c3cnc(C)nc3-c3cc(Cl)cc(Cl)c3)[nH]c2c1 [Ex. 1.59]
128 | 197 | CSc1cccc2nc([C@@H]3CCCN3C(=O)c3nc(C)sc3-c3cccc(Cl)c3Cl)[nH]c12 [Ex. 1.62]
20 | 47 | CSc1cccc2nc([C@@H]3CCCN3C(=O)c3nc(C)sc3-c3ccc(C)cc3)[nH]c12 [Ex. 1.66]
127 | 84 | CSc1cccc2nc([C@@H]3CCCN3C(=O)c3nc(C)sc3-c3ccc(F)c(F)c3)[nH]c12 [Ex. 1.67]
